From patent publication US20240132431A1, “METHOD FOR ALKYLATING ACIDIC FUNCTIONAL GROUP” (Chugai Seiyaku Kabushiki Kaisha, priority 2021, published 2024)
One block for each molecule: values may come before it.

Molecular target: T1, Bcl-2 protein (Recombinant Human Bcl-2 Protein) (Homo sapiens, UniProt P10415)
T1 construct: purchased Novus NBP2-34889
Assay: Binding evaluation of mixture library compounds to Bcl-2 using AS-MS (affinity selection mass spectrometry)
Conditions: for ASMS ratio (%) n = 1 / ASMS ratio (%) n = 2: ASMS Ratio(%)=(A−C)/B×100; for ASMS ratio (%) n = 1: replicate n = 1; for ASMS ratio (%) n = 2: replicate n = 2
Description: For one well of MICROPLATE, 96-well, PP, V-BOTTOM (Greiner bio-one, 651201), DMSO solutions of 12 mixtures (prepared to approximately 0.58 mM based on calculations from the average molecular weight of each mixture), in each of which 100 compounds are mixed, were each dispensed, and dispensed into a total of 12 wells, where the 12 mixtures are mixAI-B4J-01, mixAI-B1M-01, mixAI-B1K-01, mixAI-B10-01, mixAI-B1A-01, mixAI-B3A-01, mixAI-B21-01, mixAI-B2L-01, mixAI-B2N-01, mixAI-B2A-01, mixAI-B2Q-01, and mixAI-B2R-01 listed in [Table AI-03-B4J-01], [Table AI-03-B1M-01], [Table AI-03-B1K-01], [Table AI-03-B10-01], [Table AI-03-B1A-01], [Table AI-03-B3A-01], [Table AI-03-B2I-01], [Table AI-03-B2L-01], [Table AI-03-B2N-01], [Table AI-03-B2A-01], [Table AI-03-B2Q-01], and [AI-03-B2R-01] shown in Example 6. Using the LABCYTE ECHO® 555 Acoustic Dispensing System (BECKMAN COULTER), 70 nL was collected from each of the 12 wells into one arbitrary well to prepare a sample solution with 1200 compounds in the mixed state (the presence of 1152 compounds had already been identified when prepared in Example 6-5-3). (In the present specification, the mixture collected in this one well is referred to as one library.) Furthermore, a Bcl-2 protein (Novus, NBP2-34889, Recombinant Human Bcl-2 Protein, Lot E60145051) (19.2 μL) that had been prepared in advance to be 20.9 μM using a Tris-HCl buffer (25 mM Tris-HCl pH 7.4, 150 mM NaCl, 0.025% Tween-20, 1 mM DTT) was added to the well in which 1200 compounds (the presence of 1152 compounds had already been identified when prepared in Example 6-5-3) were dispensed (final compound concentration […], final Bcl-2 concentration 20 μM), and the mixture was incubated in the dark at 23° C. for 1 hour. Next, using the 96-well MacroSpin column, P-2 Material (Harvard, 74-5655) that had been swollen, conditioning of the 96-well MacroSpin column was performed three times by centrifugation with 200 μL of an assay buffer (25 mM Tris-HCl pH 7.4, 150 mM NaCl, 0.025% Tween-20, 1 mM DTT), 2000 XG, 4° C., 2 min. Subsequently, 20 μL of the sample after incubation was added to the 96-well MacroSpin column, P-2 Material, that had been conditioned, and SEC treatment was performed by centrifugation at 2000×G for 2 minutes. To the liquid passed from the SEC, 32 μL of a 1:1 mixed solution of acetonitrile and methanol (LC/MS grade, Fujifilm Wako Pure Chemical Corporation) was added, the mixture was centrifuged at 1800×G, 4° C., 5 min, and the supernatant was used as analysis sample ASMS (A), while a sample that had been prepared by the same operations at 1200 compounds/well and to which only the Tris-HCl buffer had been added without the Bcl-2 protein was incubated under the same conditions, no 96-well MacroSpin column treatment was performed, the same organic solvent was added, and the supernatant solution obtained by centrifugation was used as STD (B). Next, a sample that had been prepared by the same operations at 1200 compounds/well and to which only the Tris-HCl buffer had been added without the Bcl-2 protein was incubated under the same conditions, the same 96-well MacroSpin column treatment was performed, the same organic solvent was added, and the supernatant solution obtained by centrifugation was used as BK (C), and measured by reversed phase LC/MS.
Then, analysis of the 1200 compounds was carried out for samples A, B, and C with TraceFinder 5.1 (Thermo Fisher Scientific) and CHANCE Software (in-house), and the ASMS Ratio (%) was calculated according to the following calculation formula.
Calculation formula: ASMS Ratio(%)=(A−C)/B×100

[1] = AS-MS, mixture of 1200 compounds, Bcl-2
[2] = AS-MS on the mixture of 1200 library compounds

T1 sequence (P10415 whole entry): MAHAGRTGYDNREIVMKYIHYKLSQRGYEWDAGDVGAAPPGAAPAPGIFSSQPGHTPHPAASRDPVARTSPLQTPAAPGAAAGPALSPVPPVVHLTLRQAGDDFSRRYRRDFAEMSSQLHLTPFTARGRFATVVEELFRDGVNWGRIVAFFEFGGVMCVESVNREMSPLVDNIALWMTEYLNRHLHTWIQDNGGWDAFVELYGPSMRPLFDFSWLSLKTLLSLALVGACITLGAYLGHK

ASMS ratio (%) n = 1 [1]: 0.0%
ASMS ratio (%) n = 2 [1]: 0.0%
SMILES: CCOc1cncc(C#Cc2cncc(C(=O)N3CCN(c4ccc(C(=O)NCC(F)(F)F)nn4)CC3)c2)c1 [B1K010-01, 6-[4-[5-[2-(5-Ethoxypyridin-3-yl)ethynyl]pyridine-3-carbonyl]piperazin-1-yl]-N-(2,2,2-trifluoroethyl)pyridazine-3-carboxamide]

ASMS ratio (%) (n = 1): 0.0%
ASMS ratio (%) (n = 2): 0.0%
SMILES: CCOc1cccc(C#Cc2ccccc2CN2CCN(c3ccc(C(=O)NS(C)(=O)=O)nn3)CC2)c1 [B2I095-01, 6-[4-[[2-[2-(3-Ethoxyphenyl)ethynyl]phenyl]methyl]piperazin-1-yl]-N-methylsulfonylpyridazine-3-carboxamide]

ASMS ratio (%) n = 1 (AS-MS, mixture library, Bcl-2): 0.0%
ASMS ratio (%) n = 2 (AS-MS, mixture library, Bcl-2): 0.0%
SMILES: CCOc1cccc(-c2csc(C(=O)N3CCN(c4ccc(C(=O)NS(=O)(=O)CC56CC7CC(CC(C7)C5)C6)nn4)CC3)c2)c1 [B2A001-01, N-(1-Adamantylmethylsulfonyl)-6-[4-[4-(3-ethoxyphenyl)thiophene-2-carbonyl]piperazin-1-yl]pyridazine-3-carboxamide]

ASMS ratio (%) (n = 1): 0.0%
ASMS ratio (%) (n = 2): 0.0%
SMILES: CCOc1cncc(C#Cc2ccccc2C(=O)N2CCN(c3ccc(C(=O)NS(=O)(=O)C(C)(C)C)nn3)CC2)c1 [B2L008-01, N-tert-Butylsulfonyl-6-[4-[2-[2-(5-ethoxypyridin-3-yl)ethynyl]benzoyl]piperazin-1-yl]pyridazine-3-carboxamide]

ASMS ratio (%) n = 1 [2]: 2.6%
ASMS ratio (%) n = 2 [2]: 3.2%
SMILES: CCOc1cncc(-c2ccc(CN3CCN(c4ccc(C(=O)Nc5ccc(OC)cc5)cc4)CC3)c(OC)c2)c1 [B1O054-01, 4-[4-[[4-(5-Ethoxypyridin-3-yl)-2-methoxyphenyl]methyl]piperazin-1-yl]-N-(4-methoxyphenyl)benzamide]

SMILES: CCOc1cncc(-c2cc(C(=O)N3CCN(c4ccc(C(=O)N(CC)CC)cc4)CC3)cc(C(C)(C)C)c2)c1 [B4J038-01, 4-[4-[3-tert-Butyl-5-(5-ethoxypyridin-3-yl)benzoyl]piperazin-1-yl]-N,N-diethylbenzamide]
ASMS ratio (%) n = 1 [2]: 0.8%
ASMS ratio (%) n = 2 [2]: 0.0%

ASMS ratio (%) (n = 1): 0.0%
ASMS ratio (%) (n = 2): 0.0%
SMILES: CCOc1cncc(C#Cc2ccccc2C(=O)N2CCN(c3ccc(C(=O)NS(=O)(=O)CCC(F)(F)F)cc3)CC2)c1 [B2N030-01, 4-[4-[2-[2-(5-Ethoxypyridin-3-yl)ethynyl]benzoyl]piperazin-1-yl]-N-(3,3,3-trifluoropropylsulfonyl)benzamide]

ASMS ratio (%) n = 1 [1]: 4.2%
ASMS ratio (%) n = 2 [1]: 0.2%
SMILES: CCOc1cncc(-c2ccc(C(=O)N3CCN(c4ccc(C(=O)NCC(F)(F)F)cc4)CC3)cc2C)c1 [B1K026-01, 4-[4-[4-(5-Ethoxypyridin-3-yl)-3-methylbenzoyl]piperazin-1-yl]-N-(2,2,2-trifluoroethyl)benzamide]

ASMS ratio (%) (n = 1): 4.6%
ASMS ratio (%) (n = 2): −11.1%
SMILES: CCOc1cccc(-c2cc(CN3CCN(c4ccc(C(=O)NS(=O)(=O)C(C)(C)C)cc4)CC3)cc(C(F)(F)F)c2)c1 [B2L061-01, N-tert-Butylsulfonyl-4-[4-[[3-(3-ethoxyphenyl)-5-(trifluoromethyl)phenyl]methyl]piperazin-1-yl]benzamide]

ASMS ratio (%) (n = 1): 0.0%
ASMS ratio (%) (n = 2): 0.0%
SMILES: CCOc1cccc(-c2ccc(CN3CCN(c4ccc(C(=O)NS(=O)(=O)c5ccc(NCCSc6ccccc6)c(C(F)(F)F)c5)nn4)CC3)cc2F)c1 [B2R077-01, 6-[4-[[4-(3-Ethoxyphenyl)-3-fluorophenyl]methyl]piperazin-1-yl]-N-[4-(2-phenylsulfanylethylamino)-3-(trifluoromethyl)phenyl]sulfonylpyridazine-3-carboxamide]

ASMS ratio (%) n = 1 [2]: −0.5%
ASMS ratio (%) n = 2 [2]: −2.1%
SMILES: CCOc1cccc(C#Cc2cc(C(=O)N3CCN(c4ccc(C(=O)N(CC)CC)nn4)CC3)cc(C(F)(F)F)c2)c1 [B4J019-01, 6-[4-[3-[2-(3-Ethoxyphenyl)ethynyl]-5-(trifluoromethyl)benzoyl]piperazin-1-yl]-N,N-diethylpyridazine-3-carboxamide]
